Here are results for 13 molecules from ChEMBL document CHEMBL1146631, “Design and synthesis of novel CCR3 antagonists” (Bioorg Med Chem Lett, 2003).

pIC50: −log10 of the molar value.

The target of series [1] is T1, C-C chemokine receptor type 3 (Homo sapiens, UniProt P51677).
T1 sequence (P51677 whole entry): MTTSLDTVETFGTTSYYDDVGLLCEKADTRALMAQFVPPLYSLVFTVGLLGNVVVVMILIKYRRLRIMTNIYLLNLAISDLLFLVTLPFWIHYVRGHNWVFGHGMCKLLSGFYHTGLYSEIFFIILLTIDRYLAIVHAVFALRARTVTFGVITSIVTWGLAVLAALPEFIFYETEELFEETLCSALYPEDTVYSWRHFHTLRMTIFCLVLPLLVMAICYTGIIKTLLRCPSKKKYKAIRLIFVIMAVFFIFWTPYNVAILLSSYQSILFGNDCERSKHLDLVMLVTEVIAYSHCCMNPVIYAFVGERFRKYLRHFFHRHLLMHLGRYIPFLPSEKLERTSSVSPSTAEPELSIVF
Briefly: Binding affinity was determined towards C-C chemokine receptor type 3 using [125I]-labeled eotaxin as radioligand.

The next series relates to Rattus norvegicus. In words: Area under curve in rat by po administration at 0-24 hr. Also noted: time < 24 hr, route oral. The following applies: in vivo. In kind it is ADME, organism-based.
Series [2] has as its target T1, C-C chemokine receptor type 3. In words: Compound was tested for its ability to inhibit C-C chemokine receptor type 3 receptor.
A short description of series [3]: Plasma clearance in rat by iv administration. It counts as ADME, organism-based.
Series [4] is described as follows: Volume of distribution in rat by iv administration. It counts as ADME, organism-based. The following applies: in vivo.
Series [5] can be described thus: Half-life period in rat by iv administration. The conditions noted are these: in vivo. It counts as ADME, organism-based.

On to `COc1cc(NC(=O)N[C@H](C)CN2C3CCC2CC(Cc2ccc(Cl)cc2)C3)cc(OC)c1OC` (stereo partly drawn), for which the figures for the pIC50 in series [1] and in series [2] were 7.96 and 8.33, respectively. Moreover, the AUC in the series with Rattus norvegicus stood at 280 ng·h/mL.

Turning to `C[C@H](O)[C@H](CN1C2CCC1CC(Cc1ccc(Cl)cc1)C2)NC(=O)Nc1cccc(S(C)(=O)=O)c1` (stereo partly drawn), the negative-log IC50 (pIC50) in series [1] is 7.92; in series [2], 8.36. The molecule further yielded an AUC in the series with Rattus norvegicus of 710 ng·h/mL.

Take `Cc1ccc(C(=O)NC(CC2CCN(Cc3ccccc3)CC2)C(C)C)cc1` (stereo not drawn): the pIC50 in series [1] is less than 3.70.

As for `C[C@H](CN1C2CCC1CC(Cc1ccc(Cl)cc1)C2)NC(=O)Nc1cccc(S(C)(=O)=O)c1` (stereo partly drawn), the pIC50 in series [1] was 7.19; in series [2], 7.92.

Turning to `Cc1ccc(C(=O)NC(CC2CCN(Cc3ccc(C)c(C)c3)CC2)C(C)C)cc1` (stereo not drawn), the pIC50 in series [1] was 5.11.

In turn, `Cc1ccc(C(=O)NC(CC2CCN(Cc3ccc(Cl)c(Cl)c3)CC2)C(C)C)cc1` (stereo not drawn) had a pIC50 in series [1] of 5.77.

As to `COc1cc(NC(=O)N[C@@H](CN2C3CCC2CC(Cc2ccc(Cl)cc2)C3)[C@H](C)O)cc(OC)c1OC` (stereo partly drawn), the negative logarithm of the IC50 (pIC50) in series [1] was 8.09; in series [2] it was 8.62. The same molecule had an AUC in the series with Rattus norvegicus of 190 ng·h/mL.

For the molecule `Cc1ccc(C(=O)NC(CC2CCC(Cc3ccc(Cl)c(Cl)c3)CC2)C(C)C)cc1` (stereo not drawn), the pIC50 in series [1] was less than 3.70.

`COc1cc(NC(=O)NC(CC2CCN(Cc3ccc(Cl)c(Cl)c3)CC2)C(C)C)cc(OC)c1OC` (stereo not drawn) had a negative logarithm of the IC50 (pIC50) in series [1] of 6.30.

For `Cc1ccc(C(=O)NC(CC2CCN(Cc3ccc([N+](=O)[O-])cc3)CC2)C(C)C)cc1` (stereo not drawn), the negative-log IC50 (pIC50) in series [1] is 5.07.

`Cc1ccc(C(=O)NC(CN2C3CCC2CC(Cc2ccc(Cl)c(Cl)c2)C3)C(C)C)cc1` (stereo not drawn) gave a clearance in series [3] of 118 mL/min/kg. For the same molecule, the negative-log IC50 (pIC50) in series [1] is 5.74. This molecule displayed a Vd in series [4] of 30.1 L/kg. The half-life in series [5] was 3.5 h.

With `Cc1ccc(C(=O)NC(CN2CCC(Cc3ccc(Cl)c(Cl)c3)CC2)C(C)C)cc1` (stereo not drawn), in series [1], the pIC50 was 6.30.

In series [1], `Cc1ccc(C(=O)NC(CN2CC3CCC2CC3Cc2ccc(Cl)c(Cl)c2)C(C)C)cc1` (stereo not drawn) gave a pIC50 of 5.28.

The pIC50 is the negative decadic logarithm of the IC50, by convention in mol/L. A higher pIC50 goes with a low IC50. Broadly, the AUC is the area under the concentration-time curve, a measure of exposure. Low readings indicate low exposure, high ones high exposure. The term clearance denotes the volume of plasma or blood freed of the substance per unit of time. A lower clearance goes with a low capacity for elimination. Broadly, the Vd is a proportionality between amount in the body and measured concentration, not a real space. In general, half-life refers to the time needed for the level to fall by half in the phase considered. A lower half-life goes with fast loss.
